Legend:
[1] = tested on: Foxa2 and Lmx1a promoters; assay: DIP-qPCR and ChIP-qPCR on Foxa2 and Lmx1a promoters; assay type: cell-based, rat; settings: Quercetin 10 μM, 3 hours prior to VC treatment
From the text: (§1) Foxa2 and Nurr1 binding sites were identified using the Jaspar database (http://jaspar.genereg.net/) using an 80% score threshold. Predicted Foxa2 and Nurr1 binding sites were coupled with phylogenetic footprinting to eliminate spurious predictions with specified position weight matrix (PWM) settings, as described in the following reference. [Sandelin, A., and Wasserman, W. W. (2004). Constrained binding site diversity within families of transcription factors enhances pattern discovery bioinformatics. Journal of molecular biology 338, 207-215] (Table 2). ChIP and DIP assays were carried out as described in the following reference. [Prolonged membrane depolarization enhances midbrain dopamine neuron differentiation via epigenetic histone modifications. Stem Cells 29, 1861-1873]. Briefly, chromatin or genomic DNA was sheared to an average of 200-500 bp in length using a sonication Bioruptor (BMS, Seoul, Korea) and immunoprecipitated using the antibodies listed in Table 1. Immunoprecipitated DNA fragments were collected using magnetic beads (Invitrogen), purified, and subjected to real-time PCR using the primers listed in Table 3. The comparative cycle threshold method was used to quantify the results. Data were normalized to the input DNA.

Nurr1 and TH promoters = assay: DIP-qPCR and ChIP-qPCR on Nurr1 and TH promoters; assay type: cell-based, rat; settings: Quercetin 10 μM, 3 hours prior to VC treatment
From the text: as §1

Structure (SMILES): O=c1c(O)c(-c2ccc(O)c(O)c2)oc2cc(O)cc(O)c12 [quercetin]
- effect on VC-mediated changes to 5mC/5hmC and H3K27m3/H3K9m3 on Foxa2 and Lmx1a genes [1]: abolished
- effect on VC-induced epigenetic changes on Nurr1 and Th promoter (Nurr1 and TH promoters): abolished
